# Laboratory results from patent US20180214428A1, “3-(1H-INDOL-2-YL)-1H-PYRAZOLO[3,4-B]PYRIDINES AND THERAPEUTIC USES THEREOF” (Samumed, LLC, priority 2015, published 2018).
# Tested on: Wnt activity (Sp5-Luc reporter gene, SW480 colon carcinoma cells)
# Assay: Screening assay for Wnt activity: Sp5-Luc reporter gene assay in SW480 cells
# Type: cell-based, human
# Settings: Homo sapiens; for inhibition at 10 µM: given for EC50 of >10 μM, read-out: percent inhibition at 10 μM; for EC50: overnight incubation
# Description: The screening assay for Wnt activity is described as follows. Reporter cell lines can be generated by stably transducing cancer cell lines (e.g., colon cancer) or primary cells (e.g., IEC-6 intestinal cells) with a lentiviral construct that includes a Wnt-responsive promoter driving expression of the firefly luciferase gene.
# SW480 colon carcinoma cells were transduced with a lentiviral vector expressing luciferase with a human Sp5 promoter consisting of a sequence of eight TCF/LEF binding sites. SW480 cells stably expressing the Sp5-Luc reporter gene and a hygromycin resistance gene were selected by treatment with 150 μg/mL of hygromycin for 7 days. These stably transduced SW480 cells were expanded in cell culture and used for all further screening activities. Each compound was dissolved in DMSO as a 10 mM stock and used to prepare compound source plates. Serial dilution (1:3, 10-point dose-response curves starting from 10 μM) and compound transfer was performed using the ECHO 550 (Labcyte, Sunnyvale, Calif.) into 384-well white solid bottom assay plates (Greiner Bio-One) with appropriate DMSO backfill for a final DMSO concentration of 0.1%. For Sp5-Luc reporter gene assays, the cells were plated at 4,000 cells/well in 384-well plates with medium containing 1% fetal bovine serum and incubated overnight at 37° C. and 5% CO2. Following incubation, 20 μl of BrightGlo luminescence reagent (Promega) was added to each well of the 384-well assay plates. The plates were placed on an orbital shaker for 2 min and then luminescence was quantified using the Envision (Perkin Elmer) plate reader. Readings were normalized to DMSO only treated cells, and normalized activities were utilized for EC50 calculations using the dose-response log (inhibitor) vs. response variable slope (four parameters) nonlinear regression feature available in GraphPad Prism 5.0 (or Dotmatics). For EC50 of >10 μM, the percent inhibition at 10 μM is provided.
smiles,measurement,value
"CC(C)(C)C(=O)Nc1cncc(-c2cnc3[nH]nc(-c4cc5c(-c6ccoc6)cccc5[nH]4)c3c2)c1 [Compound 290, N-(5-(3-(4-(Furan-3-yl)-1H-indol-2-yl)-1H-pyrazolo[3,4-b]pyridin-5-yl)pyridin-3-yl)pivalamide]",inhibition at 10 µM,53%
same,EC50,> 10000 nM
"Cc1ccncc1-c1cnc2[nH]nc(-c3cc4c(-c5ccncc5)cccc4[nH]3)c2c1 [Compound 99, 5-(4-Methylpyridin-3-yl)-3-(4-(pyridin-4-yl)-1H-indol-2-yl)-1H-pyrazolo[3,4-b]pyridine]",inhibition at 10 µM,69.3%
same,EC50,> 10000 nM
"CN1CCN(c2cccc3[nH]c(-c4n[nH]c5ncc(-c6cncnc6)cc45)cc23)CC1 [Compound 227, 3-(4-(4-Methylpiperazin-1-yl)-1H-indol-2-yl)-5-(pyrimidin-5-yl)-1H-pyrazolo[3,4-b]pyridine]",EC50,4310 nM
"c1cncc(-c2cnc3[nH]nc(-c4cc5ccccc5[nH]4)c3c2)c1 [Compound 231, 3-(1H-Indol-2-yl)-5-(pyridin-3-yl)-1H-pyrazolo[3,4-b]pyridine]",EC50,660 nM
"c1ccc(CNCc2cncc(-c3cnc4[nH]nc(-c5cc6ccccc6[nH]5)c4c3)c2)cc1 [Compound 250, 1-(5-(3-(1H-Indol-2-yl)-1H-pyrazolo[3,4-b]pyridin-5-yl)pyridin-3-yl)-N-benzylmethanamine]",inhibition at 10 µM,50.9%
same,EC50,> 10000 nM
"CC(C)CC(=O)Nc1cncc(-c2cnc3[nH]nc(-c4cc5c(N6CCN(C)CC6)cccc5[nH]4)c3c2)c1 [Compound 202, 3-Methyl-N-(5-(3-(4-(4-methylpiperazin-1-yl)-1H-indol-2-yl)-1H-pyrazolo[3,4-b]pyridin-5-yl)pyridin-3-yl)butanamide]",EC50,4470 nM
"c1ccc(COc2cncc(-c3cnc4[nH]nc(-c5cc6ncccc6[nH]5)c4c3)c2)cc1 [Compound 1006, 5-(5-(Benzyloxy)pyridin-3-yl)-3-(1H-pyrrolo[3,2-b]pyridin-2-yl)-1H-pyrazolo[3,4-b]pyridine]",EC50,714 nM
"c1ccc(CNCc2cncc(-c3cnc4[nH]nc(-c5cc6ncccc6[nH]5)c4c3)c2)cc1 [Compound 502, 1-(5-(3-(1H-Pyrrolo[3,2-b]pyridin-2-yl)-1H-pyrazolo[3,4-b]pyridin-5-yl)pyridin-3-yl)-N-benzylmethanamine]",EC50,3960 nM
"O=C(Nc1cncc(-c2cnc3[nH]nc(-c4cc5c(-c6ccncc6)cccc5[nH]4)c3c2)c1)C1CCCCC1 [Compound 115, N-(5-(3-(4-(Pyridin-4-yl)-1H-indol-2-yl)-1H-pyrazolo[3,4-b]pyridin-5-yl)pyridin-3-yl)cyclohexanecarboxamide]",EC50,5420 nM
"CC(C)(C)CC(=O)Nc1cncc(-c2cnc3[nH]nc(-c4cc5c(-c6ccccc6F)cccc5[nH]4)c3c2)c1 [Compound 61, N-(5-(3-(4-(2-Fluorophenyl)-1H-indol-2-yl)-1H-pyrazolo[3,4-b]pyridin-5-yl)pyridin-3-yl)-3,3-dimethylbutanamide]",EC50,2170 nM
"Cc1ccncc1-c1cnc2[nH]nc(-c3cc4c(-c5cc(F)cc(CNS(C)(=O)=O)c5)cccc4[nH]3)c2c1 [Compound 455, N-(3-Fluoro-5-(2-(5-(4-methylpyridin-3-yl)-1H-pyrazolo[3,4-b]pyridin-3-yl)-1H-indol-4-yl)benzyl)methanesulfonamide]",EC50,300 nM
"O=C(Nc1cncc(-c2cnc3[nH]nc(-c4cc5c(N6CCCCC6)cccc5[nH]4)c3c2)c1)c1ccccc1 [Compound 155, N-(5-(3-(4-(Piperidin-1-yl)-1H-indol-2-yl)-1H-pyrazolo[3,4-b]pyridin-5-yl)pyridin-3-yl)benzamide]",EC50,3470 nM
"CCCC(=O)Nc1cncc(-c2cnc3[nH]nc(-c4cc5c(-c6cccc(F)c6)cccc5[nH]4)c3c2)c1 [Compound 14, N-(5-(3-(4-(3-Fluorophenyl)-1H-indol-2-yl)-1H-pyrazolo[3,4-b]pyridin-5-yl)pyridin-3-yl)butyramide]",EC50,211 nM
"CCCCC(=O)Nc1cncc(-c2cnc3[nH]nc(-c4cc5c(N6CCCCC6)cccc5[nH]4)c3c2)c1 [Compound 163, N-(5-(3-(4-(Piperidin-1-yl)-1H-indol-2-yl)-1H-pyrazolo[3,4-b]pyridin-5-yl)pyridin-3-yl)pentanamide]",EC50,3390 nM
"O=C(Nc1cncc(-c2cnc3[nH]nc(-c4cc5c(-c6ccc(F)cc6)cccc5[nH]4)c3c2)c1)C1CCC1 [Compound 41, N-(5-(3-(4-(4-Fluorophenyl)-1H-indol-2-yl)-1H-pyrazolo[3,4-b]pyridin-5-yl)pyridin-3-yl)cyclobutanecarboxamide]",EC50,543 nM
"CC(C)(C)C(=O)Nc1cncc(-c2cnc3[nH]nc(-c4cc5c(-c6ccc(F)cc6)cccc5[nH]4)c3c2)c1 [Compound 30, N-(5-(3-(4-(4-Fluorophenyl)-1H-indol-2-yl)-1H-pyrazolo[3,4-b]pyridin-5-yl)pyridin-3-yl)pivalamide]",EC50,2050 nM
"Fc1cccc(-c2cccc3[nH]c(-c4n[nH]c5ncc(-c6cncc(OCc7ccccc7)c6)cc45)cc23)c1 [Compound 520, 5-(5-(Benzyloxy)pyridin-3-yl)-3-(4-(3-fluorophenyl)-1H-indol-2-yl)-1H-pyrazolo[3,4-b]pyridine]",inhibition at 10 µM,18.2%
same,EC50,> 10000 nM
"FC1(F)CCN(Cc2cncc(-c3cnc4[nH]nc(-c5cc6ncccc6[nH]5)c4c3)c2)C1 [Compound 504, 5-(5-((3,3-Difluoropyrrolidin-1-yl)methyl)pyridin-3-yl)-3-(1H-pyrrolo[3,2-b]pyridin-2-yl)-1H-pyrazolo[3,4-b]pyridine]",inhibition at 10 µM,42.4%
same,EC50,> 10000 nM
"CC(C)C(=O)Nc1cncc(-c2cnc3[nH]nc(-c4cc5c(N6CCN(C)CC6)cccc5[nH]4)c3c2)c1 [Compound 209, N-(5-(3-(4-(4-Methylpiperazin-1-yl)-1H-indol-2-yl)-1H-pyrazolo[3,4-b]pyridin-5-yl)pyridin-3-yl)isobutyramide]",EC50,2710 nM
"CC(C)(C)CC(=O)Nc1cncc(-c2cnc3[nH]nc(-c4cc5ccccc5[nH]4)c3c2)c1 [Compound 242, N-(5-(3-(1H-Indol-2-yl)-1H-pyrazolo[3,4-b]pyridin-5-yl)pyridin-3-yl)-3,3-dimethylbutanamide]",EC50,1640 nM
"c1ccc(CNCc2cncc(-c3cnc4[nH]nc(-c5cc6c(-c7ccncc7)cccc6[nH]5)c4c3)c2)cc1 [Compound 116, N-Benzyl-1-(5-(3-(4-(pyridin-4-yl)-1H-indol-2-yl)-1H-pyrazolo[3,4-b]pyridin-5-yl)pyridin-3-yl)methanamine]",EC50,3820 nM
"Fc1cccc(-c2cccc3[nH]c(-c4n[nH]c5ncc(-c6cccnc6)cc45)cc23)c1 [Compound 2, 3-(4-(3-Fluorophenyl)-1H-indol-2-yl)-5-(pyridin-3-yl)-1H-pyrazolo[3,4-b]pyridine]",EC50,295 nM
"O=C(Nc1cncc(-c2cnc3[nH]nc(-c4cc5c(-c6ccccc6F)cccc5[nH]4)c3c2)c1)C1CCCC1 [Compound 66, N-(5-(3-(4-(2-Fluorophenyl)-1H-indol-2-yl)-1H-pyrazolo[3,4-b]pyridin-5-yl)pyridin-3-yl)cyclopentanecarboxamide]",EC50,1150 nM
"Oc1cncc(-c2cnc3[nH]nc(-c4cc5c(-c6cccs6)cccc5[nH]4)c3c2)c1 [Compound 711, 5-(3-(4-(Thiophen-2-yl)-1H-indol-2-yl)-1H-pyrazolo[3,4-b]pyridin-5-yl) pyridin-3-ol]",EC50,9770 nM
